{
  "source": "paper PMC7907166",
  "about": "“AOA-2 Derivatives as Outer Membrane Protein A Inhibitors for Treatment of Gram-Negative Bacilli Infections” (Frontiers in Microbiology, 2021)",
  "key": {"[1]": {"tested_on": "P. aeruginosa PAO1", "assay": "Bacterial adhesion assay to A549 cells", "type": "cell-based", "settings": "for adherence of PAO1 strain to A549 cells (in words): peptide 250 μg/mL, 30 min, Figure 2A; for adherence of P. aeruginosa to A549 cells reduced to: bacteria pre-incubated with peptide 250 μg/mL 30 min, MOI 500, 2 h, CFU count; for adherence of PAO1 strain to A549 cells compared with AOA-2: peptide 125, 62.5 and 31.25 μg/mL, some statistical differences, Figure 2B", "method": "(§1) The human pneumocyte cell line type II A549, derived from a human lung carcinoma, obtained from the American Type Culture Collection was used and cultured in DMEM medium (Invitrogen, Spain) supplemented with 10% of heat-inactivated fetal bovine serum, 50 μg/mL vancomycin (Laboratorios Normon, Spain), 20 μg/mL gentamicin (Normon Laboratories, Spain), 0.25 μg/mL amphotericin B mL (Invitrogen, Spain) and 1% HEPES (Invitrogen, Spain) in a humidified incubator, 5% CO2 at 37°C. Routine passage of A549 cells was performed every 3–4 days. Cells were seeded 24 h in 96-well plates (Sarstedt, Germany) for the cell viability assay, and in 24-well plates (Sarstedt, Germany) for the bacterial adhesion assays.\n(§2) A. baumannii ATCC 17978, P. aeruginosa PAO1 and E. coli ATCC 25922 strains were incubated with AOA-2 (31.25, 62.5, 125, and 250 μg/mL, 30 min), AOA-2 derivatives RW01, RW02, RW03, RW06, RW07, RW08, RW09, RW10, RW11, and RW13 (250 μg/mL, 30 min), or AOA-2 derivatives RW01, RW02, RW03, RW06 (31.25, 62.5, and 125 μg/mL, 30 min), and added at 10^8 CFU/mL, corresponding to a multiplicity of infection (MOI) of 500, to the A549 cells for 2 h at 5% CO2 and 37°C. Subsequently, infected A549 cells were washed five times with prewarmed PBS 1X and lysed with 0.5% Triton X-100. Serial dilutions of these lysates were made and plated on blood agar plates (Blood-Agar Columbia, Becton Dickinson Microbiology Systems, United States) and incubated at 37°C for 24 h for colony counting and then determination of CFU/mL that attached to A549 cells."}, "[2]": {"tested_on": "E. coli ATCC 25922", "assay": "Bacterial adhesion assay to A549 cells", "type": "cell-based", "settings": "for adherence of E. coli to A549 cells reduced to: bacteria pre-incubated with peptide 250 μg/mL 30 min, MOI 500, 2 h, CFU count", "method": "as §1, §2"}, "[3]": {"tested_on": "A549 cells", "set-up": "method as in Vila-Farrés et al., 2017", "settings": "cited from earlier work"}, "[4]": {"tested_on": "A. baumannii, P. aeruginosa, and E. coli", "settings": "in vivo administration, ref Vila-Farrés et al., 2017, cited from earlier work", "source_text": "This study focuses on the paradigm of interference in pathogenesis, that is, disarming pathogenic bacteria by neutralizing their virulence factors ([Dickey et al., 2017])."}, "[5]": {"tested_on": "P. aeruginosa PAO1", "assay": "Bacterial cytotoxicity: viability of infected A549 cells (MTT)", "type": "cell-based", "settings": "24 h infection", "method": "(§3) A549 cells were incubated with the peptide derivatives RW01, RW02, RW03, RW06, RW07, RW08, RW09, RW10, RW11, and RW13 (0, 3.5, 7, 15, 35, 62, 125, 250, and 500 μg/mL) for 24 h with 5% CO2 at 37°C. Prior the evaluation of the peptides cytotoxicity, A549 cells were washed three times with prewarmed PBS 1X. Subsequently, quantitative cytotoxicity was evaluated by measuring the mitochondrial reduction activity using the 3-(4,5-dimethylthiazol-2-yl)-2,5-diphenyltetrazolium bromide (MTT) assay as described previously ([Smani et al., 2013]). The percentage of […] was calculated from the absorbance at 570 nm as follow: [(Absorbance 570 nm of treated cells/Absorbance 570 nm mean of untreated cells) × 100].\n(§4) A549 cells were infected with 10^8 CFU/mL, corresponding to a MOI of 500, of A. baumannii ATCC 17978, P. aeruginosa PAO1 and E. coli ATCC 25922 strains pretreated with AOA-2 or AOA-2 derivatives RW01, RW02, RW03, and RW06 (31.25, 62.5, and 125 μg/mL, 30 min) for 24 h with 5% CO2 at 37°C. Prior to the evaluation of bacterial cytotoxicity, viable bacteria are first removed from A549 cell culture by washing these A549 cells five times with PBS 1X. Subsequently, cell viability was evaluated as described above."}, "[6]": {"tested_on": "A. baumannii ATCC 17978", "assay": "Bacterial cytotoxicity: viability of infected A549 cells (MTT)", "type": "cell-based", "settings": "for cell viability of infected A549 cells with respect to untreated strain: 24 h infection", "method": "as §3, §4"}, "[7]": {"tested_on": "E. coli ATCC 25922", "assay": "Bacterial cytotoxicity: viability of infected A549 cells (MTT)", "type": "cell-based", "settings": "ATCC 25922 pretreated with peptide 125, 62.5 and 31.25 μg/mL; 24 h infection", "method": "as §3, §4"}, "[8]": {"tested_on": "A. baumannii ATCC 17978", "assay": "Bacterial adhesion assay to A549 cells", "type": "cell-based", "settings": "for adherence of A. baumannii to A549 cells reduced to: bacteria pre-incubated with peptide 250 μg/mL 30 min, MOI 500, 2 h, CFU count", "method": "as §1, §2"}, "[9]": {"tested_on": "A. baumannii", "set-up": "method as in Parra-Millán et al., 2018", "settings": "ref Parra-Millán et al., 2018; cited from earlier work", "source_text": "Therefore, we thought it would be interesting to examine the capacity of RW01 and RW06 to potentiate the activity of colistin against A. baumannii ATCC 17978 strain."}, "[10]": {"tested_on": "colistin-resistant A. baumannii", "settings": "ref Parra-Millán et al., 2018; cited from earlier work", "source_text": "The therapeutic efficacy of these […] should also be further evaluated in combination with antimicrobial agents used in the clinical setting."}, "[11]": {"tested_on": "A. baumannii ATCC 17978", "type": "cell-based", "settings": "microdilution, two independent experiments", "method": "The minimal inhibitory concentration (MIC) of colistin in absence and presence of RW01 or RW06 at […] for A. baumannii ATCC 17978 strain was determined by microdilution assay in two independent experiments as previously reported ([Parra-Millán et al., 2018])."}, "[12]": {"tested_on": "OmpA-deficient mutant A. baumannii, JPAB01", "type": "cell-based"}, "[13]": {"settings": "peptide 250 μg/mL, 30 min, Figure 2A"}},
  "note": "Positions of bridges follow the written chain, without caps; N, C: chain ends. Non-standard residues stand in square brackets, D forms with d. Residues, ends and D or L forms follow the SMILES beside them. *: point of attachment. X1 = CC[C@H](C)CCCCC(=O)*; Dab = NCC[C@H](N)C(=O)O",
  "data": [
    {"compound": "&Trp-D-Pro-Lys-Trp-D-Pro-Lys& (head to tail) [RW07, AOA-2 derivative with arginine analog lysine]", "values": [
      {"measurement": "adherence of PAO1 strain to A549 cells (in words)", "setting": "[1]", "result": "reduced"},
      {"measurement": "adherence of ATCC 25922 strain to A549 cells (in words)", "setting": "[2]; [13]", "result": "reduced"}
    ]},
    {"compound": "&Trp-D-Pro-Arg-Trp-D-Pro-Arg& (head to tail) [AOA-2]", "values": [
      {"measurement": "toxicity in human lung epithelial cells", "setting": "[3]", "result": "did not show toxicity"},
      {"measurement": "mice mortality", "setting": "[4]; especially in A. baumannii", "result": "significant decrease"},
      {"measurement": "bacterial load in tissues", "setting": "[4]", "result": "large decrease"},
      {"measurement": "cell viability of infected A549 cells with respect to untreated strain", "setting": "[5]; PAO1 pretreated with peptide 125, 62.5 and 31.25 μg/mL", "result": "did not increase significantly"},
      {"measurement": "cell viability of infected A549 cells with respect to untreated strain", "setting": "[6]; ATCC 17978 pretreated with peptide 125, 62.5 and 31.25 μg/mL, 30 min", "result": "did not increase significantly"},
      {"measurement": "cell viability of infected A549 cells with respect to untreated strain", "setting": "[7]", "result": "did not increase significantly"},
      {"measurement": "adherence of P. aeruginosa to A549 cells reduced to", "setting": "[1]", "result": 84.47, "unit": "%"},
      {"measurement": "adherence of A. baumannii to A549 cells reduced to", "setting": "[8]", "result": 36.62, "unit": "%"},
      {"measurement": "adherence of E. coli to A549 cells reduced to", "setting": "[2]", "result": 65.05, "unit": "%"},
      {"measurement": "synergy with colistin", "setting": "[9]", "result": "synergize with colistin"},
      {"measurement": "therapeutic efficacy when combined with colistin", "setting": "[10]", "result": "good therapeutic efficacy"}
    ]},
    {"compound": "CC[C@H](C)CCCCC(=O)N[C@@H](CCN)C(=O)N[C@H](C(=O)N[C@@H](CCN)C(=O)N[C@H]1CCNC(=O)[C@H]([C@@H](C)O)NC(=O)[C@H](CCN)NC(=O)[C@H](CCN)NC(=O)[C@H](CC(C)C)NC(=O)[C@@H](CC(C)C)NC(=O)[C@H](CCN)NC1=O)[C@@H](C)O", "note": "[colistin, reference compound] (X1-[Dab]T[Dab][Dab][Dab][dL]L[Dab][Dab]T; lactam 4-C (inferred); N-terminus assumed)", "values": [
      {"measurement": "MIC of colistin", "setting": "[11]; colistin alone", "result": 0.5, "unit": "µg/mL"},
      {"measurement": "MIC of colistin", "setting": "[12]; colistin alone, microdilution", "result": 0.0625, "unit": "µg/mL"}
    ]},
    {"compound": "&Arg-D-Pro-Trp-Trp-D-Pro-Arg& (head to tail) [RW08]", "values": [
      {"measurement": "adherence of PAO1 strain to A549 cells (in words)", "setting": "[1]", "result": "reduced"},
      {"measurement": "adherence of ATCC 17978 strain to A549 cells (in words)", "setting": "[8]; [13]", "result": "reduced"}
    ]},
    {"compound": "&Trp-D-Pro-Dab-Trp-D-Pro-Dab& (head to tail) [RW06, AOA-2 derivative with arginine analog Dab]", "values": [
      {"measurement": "MIC of colistin in presence of peptide", "setting": "[11]; peptide added at 125 μg/mL", "result": 0.015, "unit": "µg/mL"},
      {"measurement": "cell viability of infected A549 cells with respect to untreated strain", "setting": "[5]; PAO1 pretreated with peptide 62.5 and 31.25 μg/mL (125 μg/mL excepted)", "result": "did not increase significantly"},
      {"measurement": "cell viability of infected A549 cells with respect to untreated strain", "setting": "[6]; ATCC 17978 pretreated with peptide 125 μg/mL only", "result": "increased significantly"},
      {"measurement": "protection from cell death caused by ATCC 17978 compared with AOA-2", "setting": "[6]; peptide 62.5 μg/mL", "result": "protected more significantly"},
      {"measurement": "cell viability of infected A549 cells with respect to untreated strain", "setting": "[7]", "result": "did not increase significantly"},
      {"measurement": "MIC of colistin in presence of peptide", "setting": "[12]; peptide added at 125 μg/mL, did not change the activity", "result": 0.0625, "unit": "µg/mL"},
      {"measurement": "adherence of P. aeruginosa to A549 cells reduced to", "setting": "[1]", "result": 31.14, "unit": "%"},
      {"measurement": "adherence of PAO1 strain to A549 cells compared with AOA-2", "setting": "[1]", "result": "reduced better"},
      {"measurement": "adherence of A. baumannii to A549 cells reduced to", "setting": "[8]", "result": 32.83, "unit": "%"},
      {"measurement": "adherence of ATCC 17978 to A549 cells compared with AOA-2", "setting": "[8]; peptide 125, 62.5 and 31.25 μg/mL, except RW06 at 31.25 μg/mL, Figure 2B", "result": "reduced non-statistically"},
      {"measurement": "adherence of E. coli to A549 cells reduced to", "setting": "[2]", "result": 44.44, "unit": "%"},
      {"measurement": "adherence of ATCC 25922 to host cells compared with AOA-2", "setting": "[2]; peptide 125, 62.5 and 31.25 μg/mL, Figure 2B", "result": "reduced with some statistical differences"}
    ]},
    {"compound": "&3Pal-D-Pro-Arg-3Pal-D-Pro-Arg& (head to tail) [RW02, AOA-2 derivative with tryptophan analog 3Pal]", "values": [
      {"measurement": "adherence of P. aeruginosa to A549 cells reduced to", "setting": "[1]", "result": 42.51, "unit": "%"},
      {"measurement": "adherence of PAO1 strain to A549 cells compared with AOA-2", "setting": "[1]", "result": "reduced better"},
      {"measurement": "adherence of A. baumannii to A549 cells reduced to", "setting": "[8]", "result": 43.58, "unit": "%"},
      {"measurement": "adherence of E. coli to A549 cells reduced to", "setting": "[2]", "result": 61.11, "unit": "%"}
    ]}
  ]
}
